Laboratory results published in patent US7045658B2, “Formailide derivatives as beta2-adrenoreceptor agonists” (Glaxo Group Limited, priority 2001, dated 2006).
pIC50: −log10 of the molar value.

Target: T1, human beta 2 adrenoreceptor (Homo sapiens, UniProt P07550)
T1 construct: expressed in transfected cells; host or cells: frog melanophores
Assay: frog melanophores transfected with human beta 2 adrenoreceptor, pigment dispersal (light transmittance)
Format: cell-based
Settings: melatonin-induced pigment aggregation, change in light transmittance, read-out: IC50 values at the human beta 2 adrenoreceptor (beta 2 agonist activity)
Description: The potencies of the aforementioned compounds were determined using frog melanophores transfected with the human beta 2 adrenoreceptor. The cells were incubated with melatonin to induce pigment aggregation. Pigment dispersal was induced by compounds acting on the human beta 2 adrenoreceptor. The beta 2 agonist activity of test compounds was assessed by their ability to induce a change in light transmittance across a melanophore monolayer (a consequence of pigment dispersal).

T1 sequence (P07550 whole entry): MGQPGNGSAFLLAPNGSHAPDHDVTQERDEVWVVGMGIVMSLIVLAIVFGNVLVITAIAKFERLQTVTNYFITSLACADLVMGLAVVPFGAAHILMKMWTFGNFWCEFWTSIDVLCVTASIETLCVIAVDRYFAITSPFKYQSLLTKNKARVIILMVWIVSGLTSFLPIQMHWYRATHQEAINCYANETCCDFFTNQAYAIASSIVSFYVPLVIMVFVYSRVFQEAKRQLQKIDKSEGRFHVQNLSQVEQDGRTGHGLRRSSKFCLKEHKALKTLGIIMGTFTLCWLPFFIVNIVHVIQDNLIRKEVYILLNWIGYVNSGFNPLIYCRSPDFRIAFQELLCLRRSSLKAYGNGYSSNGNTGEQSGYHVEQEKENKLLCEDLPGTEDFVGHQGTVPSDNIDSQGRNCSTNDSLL

NS(=O)(=O)c1cccc(CCCCOCCCCCCNC[C@H](O)c2ccc(O)c(NC=O)c2)c1 [Example 1, 3-(4-{[6-({(2R)-2-[3-(Formylamino)-4-hydroxyphenyl]-2-hydroxyethyl}amino)hexyl]oxy}butyl)benzenesulfonamide compound with (2E)-but-2-enedioic acid (2:1)]
pIC50: > 6.00

CC(C)(C)NS(=O)(=O)c1cccc(CCCCOCCCCCCNC[C@H](O)c2ccc(O)c(NC=O)c2)c1 [Example 2, N-(tert-Butyl)-3-(4-{[6-({(2R)-2-[3-(formylamino)-4-hydroxyphenyl]-2-hydroxyethyl}amino)hexyl]oxy}butyl)benzenesulfonamide]
pIC50: > 6.00
